Patent US20160045528A1, “COMBINATION THERAPY FOR TREATING A PARAMYXOVIRUS” (priority 2014, published 2016)

System: RSV subgenomic replicon 395 HeLa
Assay: RSV replicon assay (Renilla luciferase, 395 HeLa replicon cells)
Type: cell-based
Conditions: human respiratory syncytial virus, 168 h
Source text: The RSV subgenomic replicon 395 HeLa was licensed from Apath (Brooklyn, N.Y.) and was originally developed by Dr. Mark Meeples of Center for Vaccines & Immunity, the Research Institute at Nationwide Children's Hospital in Columbus, Ohio. To generate subgenomic RSV replicon, three glycoprotein genes, those for SH, G, and F, from a full-length recombinant GFP-expressing (rg) RSV antigenomic cDNA were deleted. In their place, a blasticidin S deaminase (bsd) gene was inserted. Through multiple steps, the RSV replicon was established in HeLa cells. The 395 HeLa cells were cultured in Dulbecco's Modified Eagle Medium (DMEM) containing 4500 mg/L D-glucose, L-glutamine, and 110 mg/L sodium pyruvate (Invitrogen, Cat. #11995-040). The medium was further supplemented with 10% (v/v) fetal bovine serum (FBS) (Mediatech, Cat. #35-010-CV), 1% (v/v) penicillin/streptomycin (Mediatech, Cat. #30-002-CI), and 10 μg/mL of Blasticidin (BSD) (Invivogen, Cat. code ant-b1-1). Cells were maintained at 37° C. in a humidified 5% CO2 atmosphere.
Determination of 50% inhibitory concentration […], 90% inhibitory concentration (C90) and 50% cytotoxic concentration […] in RSV replicon cells were performed by the following procedure. […]
The Renilla Luciferase Assay System (Promega, Cat. #E2820) was used to measure anti-RSV replicon activity. […] Luminescence was recorded using a Perkin Elmer multilabel counter Victor3V.

Structure (SMILES): [2H]C([2H])(OC(=O)C(C)C)[C@@]1(CCl)O[C@@H](n2ccc(N)nc2=O)[C@H](F)[C@@H]1OC(=O)C(C)C [Compound 31]
- EC50: < 1000 nM
